Measurements: patent publication US20210236582A1, “ANTIMICROBIAL COMPOSITION BASED ON POLYPHENOLS AND POLYSACCHARIDES, METHOD FOR PREPARING THEREOF AND USE OF THE SAME” (priority 2018, published 2021)
≈ marks a conversion by molar mass, not a printed value.

Tests used:
in vitro = conditions: dog
[1] = system: Influenza A/Puerto-Rico/8/34 (H1N1) virus; format: cell-based; conditions: for Antiviral activity against A/PR8 (H1N1) virus ΔlgTCID50 av: pronounced antiviral activity ≥ 1.50
MDCK ECACC cell line = conditions: MDCK ECACC cells, 48 h incubation, MTS

Compound | CC50 at 48 h (in vitro) [µg/mL] | Antiviral activity against A/PR8 (H1N1) virus ΔlgTCID50 av [1] | Antiviral activity against A/PR8 (H1N1) virus IC50 av ([1]; MDCK ECACC cells, assessed after 48 h by CPE and HAR) | Cytotoxicity CC50 av (MDCK ECACC cell line) [µg/mL]
Cc1cc2c(C(C)C)c(O)c(O)cc2c(O)c1-c1c(C)cc2c(C(C)C)c(O)c(O)cc2c1O [Apogossypol, apogossypol] | 9.4 (≈ 20.3 µM) | 0.50 |  | 
gossypol acetic acid |  | 1.32 | 0.0012 | 3.9
